Experimental data from PubChem BioAssay (NCI).
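Five concentrations, 48 hours, 96-well plates. GI50: concentration for 50% inhibition of growth. TGI: total growth inhibition.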

Experiments:
Assay in all cases: NCI-60 cell line screen, 48 h
MDA-MB-231 breast = test system: MDA-MB-231 breast
T-47D breast = test system: T-47D breast
DU-145 prostate = test system: DU-145 prostate
PC-3 prostate = test system: PC-3 prostate
SNB-78 CNS = test system: SNB-78 CNS
KM20L2 colon = test system: KM20L2 colon
DMS 273 small cell lung = test system: DMS 273 small cell lung
M19-MEL melanoma = test system: M19-MEL melanoma
HOP-18 NSCLC = test system: HOP-18 NSCLC
DMS 114 small cell lung = test system: DMS 114 small cell lung
DLD-1 colon = test system: DLD-1 colon

Compound	TGI (MDA-MB-231 breast) [µM]	TGI (T-47D breast) [µM]	TGI (DU-145 prostate) [µM]	TGI (PC-3 prostate) [µM]	GI50 (MDA-MB-231 breast) [µM]	GI50 (T-47D breast) [µM]	GI50 (DU-145 prostate) [µM]	GI50 (PC-3 prostate) [µM]	also measured
CC(C)OP(=O)(OC(C)C)/C(C#N)=C/c1c[nH]c2ccccc12	> 100	> 100	> 100	> 100					
C=C1C(=O)OC2(C)CCC1CC1OC1(C)CCC=C(C)CCC2O (stereo not drawn)	> 100	> 100	> 100	> 100					
CNC(=O)c1cc(-c2ccc(F)cc2)cc(-c2ccc(S(=O)(=O)N3CCCC3)cc2)c1N	> 25	> 25	> 25	> 25	> 20.8	10.5	> 25	8.54	
CNc1nc(-c2ccc3c(N)n[nH]c3c2)cc(N2C[C@@H](C(=O)NC3CCCCC3)CC[C@H]2C)n1	15.7	5.3	21.3	18.4	2.61	0.13	5.91	0.405	
C1CC[N-]CC1.CC(=N\O)/C(C)=N/O.CC(=N\O)/C(C)=N/O.C[CH-]C(C)O.[Co+2]	64	41.1	> 100	70.8	27.2	12.6	81.1	26.7	
COc1ccc2c(c1)C=CC1C2CC[C@]2(C)C(NC(=O)/C=C/c3ccc(O)c(O)c3)CCC12 (stereo partly drawn)	25.9	29	39.6	18	12.1	12.2	16.1	4.64	
O=C1/C(=C/c2ccc(O)cc2)Oc2ccccc21	> 100	> 100	> 100	> 100					
CC1=C(SCCC(=O)OC(C[Se]C2=C(C)C(=O)c3ccccc3C2=O)C(=O)NC(C)(C)C)C(=O)c2ccccc2C1=O (stereo not drawn)	2.94	2.95	2.82	1.69	1.49	0.904	1.49	0.457	
CSc1nc2ccc(C)cc2cc1/C=C1/C=C(c2ccccc2)NC1=O	36.6	24.5	96.1	> 100	4.42	1.66	6.72	5.32	
CN1CCN(c2nc3cc(F)ccc3n3cccc23)CC1	> 100	> 100		> 100					
Cn1cc(-c2csc(-c3cn(C(=O)OC(C)(C)C)c4ccccc34)n2)c2cccnc21	20	15.6	21.6	24.4	5.3	3.71	5.17	4.89	
NC1=C(O)C(=O)C(c2c[nH]c3ccc(OCc4ccccc4)cc23)O1 (stereo not drawn)	> 100	> 100	> 100	> 100					
CCOC(=O)N(O)c1ccc(/C=C/c2ccccc2)cc1	39.9	8.81	> 88.6	> 100	9.39	0.452	11.2	8.23	
CC(=O)OC1=C(CC(C)(C)C)C(=O)c2ccccc2C1=O	> 100	> 100	> 100	> 100					
O=C1C=CC(=O)c2c(O)c(N(CCCl)CCCl)c(Cl)c(O)c21	6.75	6.57	> 10	> 8.55					
CC(=O)[O][Hg][c]1s[c]([Hg][O]C(C)=O)[c]([Hg][O]C(C)=O)[c]1[Hg][O]C(C)=O									GI50 (SNB-78 CNS): 1420 nM; GI50 (KM20L2 colon): 14.3 µM; TGI (KM20L2 colon): 37.3 µM; GI50 (DMS 273 small cell lung): 3.6 µM; TGI (DMS 273 small cell lung): > 100 µM; GI50 (M19-MEL melanoma): 3.99 µM; TGI (M19-MEL melanoma): > 100 µM
N=C1C=C(N)C(=O)c2ccccc21	0.554	0.671	0.345	1.34	0.18	0.261	0.191	0.281	
CCSc1nc(N)c2cnn(CC)c2n1	7.29	> 100	40.3	14.8	2.08	17.3	5.75	4.34	
CC[C@@H](C(=O)[C@@H](C)[C@@H](O)[C@H](C)[C@@H]1O[C@@H]([C@@H](CC)C(=O)O)CC[C@@H]1C)[C@H]1O[C@]2(C=C[C@@H](O)[C@]3(CC[C@@](C)([C@H]4CC[C@](O)(CC)[C@H](C)O4)O3)O2)[C@H](C)C[C@@H]1C	7.68	16.7	28.5	32.6	0.732	0.383	1.71	0.084	
Cn1cccc1-c1cc(-c2ccccc2)nc(N)c1C#N	> 100	> 100	> 100	> 100	> 82	> 100	97.5	> 100	
O=C1CC2OCC=C3CN4CCC5(C(=O)O)C(N1)C2C3CC45 (stereo not drawn)	> 100	> 100	> 100	> 100					
N#CC(C#N)C(c1ccccc1)c1ccccc1									TGI (SNB-78 CNS): > 100 µM; TGI (KM20L2 colon): > 100 µM; TGI (HOP-18 NSCLC): > 100 µM; TGI (DMS 273 small cell lung): > 100 µM; TGI (DMS 114 small cell lung): > 100 µM; TGI (DLD-1 colon): > 100 µM
C/C(=N\Nc1n[nH]c(=S)n1N)c1c(O)cc(C)oc1=O									TGI (SNB-78 CNS): > 100 µM; TGI (KM20L2 colon): > 100 µM; TGI (HOP-18 NSCLC): > 100 µM; TGI (M19-MEL melanoma): > 100 µM; TGI (DLD-1 colon): > 100 µM
O=C(/C=C/c1ccc(Cl)cc1Cl)c1ccc(Cl)cc1Cl	27	> 72.7	> 100	64.3	4.5	24.2	29.5	24.4	
CN(C)Cc1cc(C(C)(C)C)cc(CN(C)C)c1O	> 100	> 100	> 100	> 100					
O=C(N/N=C/c1ccc(N(CCCl)CCCl)cc1)c1ccc(C(=O)N/N=C/c2ccc(N(CCCl)CCCl)cc2)cc1	> 100	> 100	> 100		4.73	5.54	0.341		
COC(=N)CCCl			> 100	> 100					
Cc1c2ccccc2c(C)n2c1nc1cc(Cl)c(Cl)cc12	> 100	> 100	> 100	> 100	72.5	3.95	> 100	31.4	
